Laboratory results: publication PMC8064475, “Synthesis of Biobased Phloretin Analogues: An Access to Antioxidant and Anti-Tyrosinase Compounds for Cosmetic Applications” (Antioxidants, 2021)
“Also recorded” adds a separate entry of the source.

Legend:
[1] = DPPH radical scavenging assay; format: biochemical; details: in ethanol; DPPH 200 µM; read at 520 nm over 7.5 h; read-out: EC50 for DPPH inhibition
Procedure: The radical scavenging activity of all compounds was tested through 2,2-diphenyl-1-picryhydrazyl (DPPH) assay which determines the EC50 values as previously described. The test consists of adding 190 µL of DPPH solution (200 µM) in ethanol to 10 µL of potential antiradical molecule solution at different concentrations (from 800 to 12.5 µM). The reaction was carried out in 96-well microplates and the disappearance of DPPH radicals was monitored at 520 nm every 5 min during 7.5 h in a multiplate Biotek (Winooski, VT, USA), Epoch 2 spectrophotometer. The EC50 values, corresponding to the concentration needed to reduce half of the initial population of DPPH radicals, were provided by the crossing point of the curves of %DPPH and %reduced DPPH. Curves dots were obtained using an average of the last six measurements for each concentration in Regressi® software version 3.99.

[2] = biological target: mushroom tyrosinase; test: Mushroom tyrosinase inhibition assay; format: biochemical; details: tyrosine substrate; ammonium formate buffer pH 6.4; 37 °C; dopachrome at 420 nm
Procedure: Tyrosinase inhibition activity was evaluated using the method used by Peyrot et al.. […] Then, 20 µL of tyrosine at 4.42 mM in ammonium formate buffer was added. […] IC50 values, corresponding to the concentration required to inhibit 50% of tyrosinase activity, were obtained using GraphPad Prism® software version 6.01.

[3] = UV-Vis spectra at 10 µM in ethanol; format: physicochemical; details: 1 cm quartz cuvette, band I
Procedure: (§1) UV-Vis spectra were recorded at 10 µM in ethanol on a Cary 60 UV-Vis spectrophotometer by Agilent (Wilmington, DE, USA) in a 1 cm quartz cuvette. The absorbance loss was evaluated by comparison of absorbances at the λmax before and after 1 h of irradiation into a Rayonet® RPR-200 (λ = 300 nm, P = 8.32 W.m^−2, stirring, T = 35 °C) (SNE Ultraviolet Co. Branford, CT, USA) using 14 RPR-3000A lamps.

[4] = Photostability: absorbance loss after UV irradiation; format: physicochemical; details: 10 µM in ethanol; 1 h irradiation at 300 nm; absorbance at λmax before vs after
Procedure: as §1

EC50 [1] [µM]	IC50 [2] [µM]	Maximal absorbance [3]	Loss of absorbance [4]	Compound	IC50 for mushroom tyrosinase inhibition [2]
> 80	> 10000	0.19	67.7%	COc1cc(C(=O)CCc2ccc(O)cc2)cc(OC)c1O [b9, 4,4′-dihydroxy-3′,5′-dimethoxy-dihydrochalcone]	
35	> 10000	0.21	11.4%	O=C(CCc1ccc(O)c(O)c1)c1ccc(O)cc1 [b2, 3,4,4′-trihydroxy-dihydrochalcone]	
29.5	270 ± 10	0.13	20%	COc1cc(CCC(=O)c2ccc(O)c(OC)c2)ccc1O [b10, 4,4′-dihydroxy-3,3′-dimethoxydihydrochalcone]	
42.5	> 10000			COc1cc(CCC(=O)c2cc(OC)c(O)c(OC)c2)cc(OC)c1O [b12, 4,4′-dihydroxy-3,3′,5,5′-tetramethoxy-dihydrochalcone]	
11	70 ± 10		0.1%	COc1cc(CCC(=O)c2ccc(O)c(O)c2)ccc1O [b8, 3′,4,4′-trihydroxy-3-methoxy-dihydrochalcone]	
28	500 ± 30			COc1cc(CCC(=O)c2ccc(O)cc2)ccc1O [b5, 4,4′-dihydroxy-3-methoxy-dihydrochalcone]	
32	> 10000			COc1cc(C(=O)CCc2ccc(O)c(O)c2)ccc1O [b7, 3,4,4′-trihydroxy-3-methoxy-dihydrochalcone]	
> 80	> 10000			COc1cc(C(=O)CCc2ccc(O)cc2)ccc1O [b6, 4,4′-dihydroxy-3′-methoxy-dihydrochalcone]	
33	> 10000		Full loss of absorbance	COc1cc(C(=O)CCc2cc(OC)c(O)c(OC)c2)ccc1O [b11, 4,4′-dihydroxy-3,3′,5-trimethoxy-dihydrochalcone]	

More lines, now with the values behind:

Compound	EC50 [1] [µM]	IC50 [2] [µM]	Maximal absorbance [3]	Loss of absorbance [4]	IC50 for mushroom tyrosinase inhibition [2]
O=C(/C=C/c1ccc(O)cc1)c1ccc(O)c(O)c1 [a3, 3′,4,4′-trihydroxy-chalcone]	15.5	> 10000			did not show any activity
O=C(/C=C/c1ccc(O)cc1)c1ccc(O)cc1 [a1, 4,4′-dihydroxy-chalcone]	> 80	100 ± 10	0.65	77.6%	
O=C(/C=C/c1ccc(O)c(O)c1)c1ccc(O)c(O)c1 [a4, 3,3′,4,4′-tetrahydroxy-chalcone]	8		0.47	75.7%	
COc1cc(/C=C/C(=O)c2ccc(O)c(OC)c2)ccc1O [a10, 4,4′-dihydroxy-3,3′-dimethoxy-chalcone]	43.5	1800 ± 90			
COc1cc(C(=O)/C=C/c2cc(OC)c(O)c(OC)c2)ccc1O [a11, 4,4′-dihydroxy-3,3′,5-trimethoxy-chalcone]	45	7900 ± 400	0.27		
COc1cc(C(=O)/C=C/c2ccc(O)cc2)cc(OC)c1O [a9, 4,4′-dihydroxy-3′,5′-dimethoxy-chalcone]	> 80	130 ± 10			
3,4,4′-trihydroxy-3-methoxy-chalcone [a7]	31.5	2300 ± 100	0.38	46.2%	
COc1ccc(C(=O)CC(=O)c2ccc(C(C)(C)C)cc2)cc1 [Avobenzone, avobenzone, reference compound]			0.37	0.6%	
O=C(CCc1ccc(O)cc1)c1ccc(O)cc1 [b1, 4,4′-dihydroxy-dihydrochalcone]	> 80	> 10000	0.23	13.8%	
COc1cc(C(=O)/C=C/c2ccc(O)cc2)ccc1O [a6, 4,4′-dihydroxy-3′-methoxy-chalcone]	> 80	140 ± 10		16.1%	
COc1ccc(O)c(C(C)(C)C)c1 [BHA, butylated hydroxyanisol, reference compound]	18.5				
CCCCC(CC)COC(=O)C=Cc1ccc(OC)cc1 (stereo not drawn) [Octinoxate, octinoxate, reference compound]			0.24	26.0%	
O=C(/C=C/c1ccc(O)c(O)c1)c1ccc(O)cc1 [a2, 3,4,4′-trihydroxy-chalcone]	31.5				
O=C(CCc1ccc(O)c(O)c1)c1ccc(O)c(O)c1 [b4, 3,3′,4,4′-tetrahydroxy-dihydrochalcone]	15	> 10000		Negative loss of absorbance; also recorded: higher absorbance higher after 1 h of irradiation	
Cc1cc(C(C)(C)C)c(O)c(C(C)(C)C)c1 [BHT, butylated hydroxytoluene, reference compound]	28				
O=C(CCc1ccc(O)cc1)c1ccc(O)c(O)c1 [b3, 3′,4,4′-trihydroxy-dihydrochalcone]	16	> 10000		Negative loss of absorbance; also recorded: higher absorbance higher after 1 h of irradiation	
COc1cc(/C=C/C(=O)c2ccc(O)cc2)ccc1O [a5, 4,4′-dihydroxy-3-methoxy-chalcone]	71	2300 ± 100			
COc1cc(/C=C/C(=O)c2ccc(O)c(O)c2)ccc1O [a8, 3′,4,4′-trihydroxy-3-methoxy-chalcone]	9.5	> 10000			
COc1cc(/C=C/C(=O)c2cc(OC)c(O)c(OC)c2)cc(OC)c1O [a12, 4,4′-dihydroxy-3,3′,5,5′-tetramethoxy-chalcone]	43	> 10000			
O=C(CCc1ccc(O)cc1)c1c(O)cc(O)cc1O [Phloretin, phloretin]	24.5	> 10000	0.23	5.9%	did not exhibit tyrosinase inhibition activity
